Source: BindingDB's records for patent US9701669 (Merck Sharp & Dohme Corp, 2017)

Biological target: T1, Proteinase-activated receptor 1 (Homo sapiens, UniProt P25116)
T1 sequence (P25116 whole entry): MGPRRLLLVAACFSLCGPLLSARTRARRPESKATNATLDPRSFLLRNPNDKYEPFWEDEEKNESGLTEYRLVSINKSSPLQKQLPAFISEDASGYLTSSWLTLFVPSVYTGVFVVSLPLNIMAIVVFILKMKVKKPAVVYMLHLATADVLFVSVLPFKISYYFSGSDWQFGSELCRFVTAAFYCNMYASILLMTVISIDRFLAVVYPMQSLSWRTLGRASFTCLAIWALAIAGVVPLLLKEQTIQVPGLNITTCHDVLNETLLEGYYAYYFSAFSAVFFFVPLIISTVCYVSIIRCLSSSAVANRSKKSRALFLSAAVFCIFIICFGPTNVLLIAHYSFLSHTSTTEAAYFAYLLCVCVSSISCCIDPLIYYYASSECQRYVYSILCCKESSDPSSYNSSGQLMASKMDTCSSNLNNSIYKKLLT
Experiment: PAR-1 FLIPR Assay
Method: Media was then removed from the cells, incubated with 33 ul of Calcium-5 dye in assay buffer (Hank's buffer containing 20 mM HEPES, 0.04% Chaps and 2.5 mM Probenecid) for 60 minutes at 37° C. 2 uL of varying concentrations of compound in 40% DMSO in assay buffer (final DMSO concentration is 2.3%) were then added to the cells and incubated at 25° C. for 30 minutes. […] The range of peptide was from 1.5-3 μM. The final volume was 40 uL/well, with 2% DMSO. […] The data were analyzed by taking the peak signal over a portion of the range of the 60 scans and dividing this signal by the minimum signal for that same range.

- IC50: 6.92 nM
SMILES: Cc1nc(/C=C/[C@@H]2[C@@H]3[C@@H](C)OC(=O)[C@]3(C(N)=O)CC(F)(F)[C@H]2C)ccc1-c1ccccc1C#N [US9701669, 4]
